# Results from paper PMC8877724 (Journal of medicinal chemistry, 2020).
# “Also recorded” adds a separate entry of the source. Like-named read-outs stand apart in the source and are kept apart here.
# Assays:
# [1] = Reaction with excess cysteamine monitored by 1H NMR; format: physicochemical
# [2] = system: NF-κB signaling in A549 cells bearing a stably transfected NF-κB-driven luciferase reporter gene; experiment: NF-κB luciferase reporter assay, TNF-α induced; format: cell-based; details: tested at 5-20 μM, 20 μM the highest concentration tested
# [3] = system: Vero cells; experiment: Vero cell viability assay; format: cell-based, African green monkey; details: 48 h
# [4] = system: NF-κB signaling in HEK293 cells containing a stably transfected NF-κB-driven SEAP reporter gene; experiment: NF-κB secreted alkaline phosphatase; format: cell-based, human; details: tested at 1-7.5 μM, SEAP reporter assay
# [5] = target: T1, La antigen (Homo sapiens, UniProt P05455); details: cited from earlier work
# T1 sequence (P05455 100-324 limits assumed): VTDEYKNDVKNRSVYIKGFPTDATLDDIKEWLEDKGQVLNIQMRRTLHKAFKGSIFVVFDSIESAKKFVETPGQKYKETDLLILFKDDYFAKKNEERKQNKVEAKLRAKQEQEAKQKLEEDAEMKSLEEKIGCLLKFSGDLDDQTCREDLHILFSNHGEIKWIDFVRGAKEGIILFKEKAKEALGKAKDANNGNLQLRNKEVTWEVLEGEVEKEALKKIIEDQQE
# [6] = system: HEK293/NF-κB-SEAP cells; experiment: Cellular cytotoxicity accompanying the SEAP reporter assay; format: cell-based, human; details: 7.5 μM
# [7] = cited from earlier work
# [8] = system: A549/NF-κB-luc cells; details: 10 μM, A549/NF-κB-luc assay; cited from earlier work
compound,measurement,setting,value
"3-methylene-9-phenyl-3,3a,4,5-tetrahydroazuleno[4,5-b]furan-2,8(7H,9bH)-dione [Compound S17]",Half-life,"[1]; HSCH2CH2NH2 (15 equiv), CDCl3 (0.006 M), rt",7 min
"C=C1C(=O)N[C@@H]2C3=C(c4ccccc4)C(=O)CC3=C(C)CC[C@@H]12 (relative stereo) [Compound 45, (3aS*,9bS*)-6-Methyl-3-methylene-9-phenyl-3,3a,4,5-tetrahydro-1H-azuleno[4,5-b]pyrrole-2,8(7H,9bH)-dione]",NF-κB inhibition (in words),[2],did not inhibit NF-κB signaling; also recorded: no NF-κB inhibition
"C=C1C(=O)N[C@@H]2C3=CC(=O)CC3=C(C)CC[C@@H]12 (relative stereo) [Compound 47, (3aS*,9bS*)-6-Methyl-3-methylene-1,3a,4,5,7,9b-hexahydro-2H-azuleno[4,5-b]pyrrole-2,8(3H)-dione]",cytotoxicity (in words),[3],low cytotoxicity
same,NF-κB inhibition (in words),[4],little or no inhibition
same,NF-κB inhibition (in words),[2],did not inhibit NF-κB signaling; also recorded: little or no inhibition
"C=C1C(=O)N(C)[C@@H]2C3=C(c4ccccc4)C(=O)CC3=C(C)CC[C@@H]12 (relative stereo) [Compound 48, (3aS*,9bS*)-1,6-Dimethyl-3-methylene-9-phenyl-1,3a,4,5,7,9b-hexahydro-2H-azuleno[4,5-b]pyrrole-2,8(3H)-dione]",NF-κB inhibition (in words),[2],no inhibitory activities
"C=C1C(=O)N(c2ccccc2)[C@@H]2C3=C(c4ccccc4)C(=O)CC3=C(C)CC[C@@H]12 (relative stereo) [Compound 49, (3aS*,9bS*)-6-Methyl-3-methylene-1,9-diphenyl-1,3a,4,5,7,9b-hexahydro-2H-azuleno[4,5-b]pyrrole-2,8(3H)-dione]",NF-κB inhibition (in words),[2],no inhibitory activities; also recorded: little NF-κB inhibitory activity; also recorded: no NF-κB inhibition
"C=C1C(=O)N(c2ccc(OC)cc2)[C@@H]2C3=C(c4ccccc4)C(=O)CC3=C(C)CC[C@@H]12 (relative stereo) [Compound 52, (3aS*,9bS*)-1-(4-Methoxyphenyl)-6-methyl-3-methylene-9-phenyl-1,3a,4,5,7,9b-hexahydro-2H-azuleno[4,5-b]pyrrole-2,8(3H)-dione]",NF-κB inhibition (in words),[2],no inhibitory activities; also recorded: little NF-κB inhibitory activity; also recorded: no NF-κB inhibition
"C=C1C(=O)N(S(=O)(=O)c2ccc(C)cc2)[C@@H]2C3=C(c4ccccc4)C(=O)CC3=C(C)CC[C@@H]12 (relative stereo) [Compound 54, (3aS*,9bS*)-6-Methyl-3-methylene-9-phenyl-1-tosyl-1,3a,4,5,7,9b-hexahydro-2H-azuleno[4,5-b]pyrrole-2,8(3H)-dione]",time to complete reaction with cysteamine,"[1]; cysteamine (15 equiv), CDCl3, rt, disappearance of methylene resonances by 1H NMR",less than 10 min
C=CC(=O)N1CCC[C@@H](n2nc(-c3ccc(Oc4ccccc4)cc3)c3c(N)ncnc32)C1 [Ibrutinib],ALARM NMR result,[5],ALARM NMR negative
"C=C1C(=O)O[C@@H]2[C@H]3O[C@]3(C)CC/C=C(\C)CC[C@@H]12 [PTL, parthenolide]",cytotoxicity (in words),[6],moderate level of cytotoxicity
same,time to complete reaction with cysteamine,[7],less than 5 min
same,cytotoxicity (in words),[8],no cytotoxicity
